Laboratory results: ChEMBL document CHEMBL1143432, “Towards novel S-DABOC inhibitors: synthesis, biological investigation, and molecular modeling studies” (2008)

Tested on: Human immunodeficiency virus 1
Test: Antiviral activity against wild type HIV1 NL4-3 infected in human MT4 cells assessed as virus-induced cell death by MTT method
Format: functional
Conditions: Human immunodeficiency virus 1, NL4-3, MT4; read-out: ED50 (the source's name)

Structure (SMILES) | EC50 [µM]
CSc1nc(N)c(C)c(C(=O)Cc2ccccc2)n1 | > 25
CSc1nc(N)c(C)c(/C(=N\O)c2ccccc2)n1 | 10.5
CSc1nc(N)c(C)c(C(=O)CCc2ccccc2)n1 | > 25
CNc1nc(N)c(C)c(C(=O)c2ccccc2)n1 | 3.4
CSc1nc(N)c(C)c(C(Cl)c2ccccc2)n1 (centres undefined) | 12
CSc1nc(N)c(C)c(C(F)c2ccccc2)n1 (centres undefined) | > 25
Cc1ccnc2c1NC(=O)c1cccnc1N2C1CC1 [NEVIRAPINE] | 0.04
CSc1nc(N)c(C)c(C(O)c2ccccc2)n1 (centres undefined) | > 25
Cc1c(N)nc(S(C)(=O)=O)nc1C(=O)c1ccccc1 | 0.44
CSc1nc(N)c(C)c(C(=O)c2ccccc2)n1 | 0.06
CSc1nc(N)c(C)c(C(=O)c2cccc3ccccc23)n1 | > 19.4
CSc1nc(N)c(C)c(C(=O)c2cccc(F)c2)n1 | 0.034
COc1ccc(CSc2nc(Cc3c(Cl)cccc3Cl)c(C)c(=O)[nH]2)cc1 | 0.007

Target: Human immunodeficiency virus type 1 reverse transcriptase (Human immunodeficiency virus 1) (UniProt Q72547)
Test: Inhibition of wild type HIV1 reverse transcriptase
Conditions: not given

Structure (SMILES) | ID50 [µM]
CSc1nc(N)c(C)c(C(=O)Cc2ccccc2)n1 | > 20
CSc1nc(N)c(C)c(/C(=N\O)c2ccccc2)n1 | > 20
CSc1nc(N)c(C)c(C(=O)CCc2ccccc2)n1 | > 20
CNc1nc(N)c(C)c(C(=O)c2ccccc2)n1 | > 20
CSc1nc(N)c(C)c(C(Cl)c2ccccc2)n1 (centres undefined) | > 20
CSc1nc(N)c(C)c(C(F)c2ccccc2)n1 (centres undefined) | > 20
CSc1nc(N)c(C)c(C(O)c2ccccc2)n1 (centres undefined) | 7.7
Cc1c(N)nc(S(C)(=O)=O)nc1C(=O)c1ccccc1 | 16
CSc1nc(N)c(C)c(C(=O)c2ccccc2)n1 | 1.9
CSc1nc(N)c(C)c(C(=O)c2cccc3ccccc23)n1 | 2.7
CSc1nc(N)c(C)c(C(=O)c2cccc(F)c2)n1 | 0.2

Tested on: Human immunodeficiency virus 1
Test: Antiviral activity against drug-resistant HIV1 with reverse transcriptase K103N mutant infected in human MT4 cells assessed as virus-induced cell death by MTT method
Format: functional
Conditions: Human immunodeficiency virus 1, MT4; read-out: ED50 (the source's name)

Structure (SMILES) | EC50 [µM]
CSc1nc(N)c(C)c(C(=O)Cc2ccccc2)n1 | > 25
CSc1nc(N)c(C)c(/C(=N\O)c2ccccc2)n1 | > 25
CSc1nc(N)c(C)c(C(=O)CCc2ccccc2)n1 | > 25
CNc1nc(N)c(C)c(C(=O)c2ccccc2)n1 | > 25
CSc1nc(N)c(C)c(C(Cl)c2ccccc2)n1 (centres undefined) | > 25
CSc1nc(N)c(C)c(C(F)c2ccccc2)n1 (centres undefined) | > 25
Cc1ccnc2c1NC(=O)c1cccnc1N2C1CC1 [NEVIRAPINE] | 0.68
CSc1nc(N)c(C)c(C(O)c2ccccc2)n1 (centres undefined) | > 25
O=C1Nc2ccc(Cl)cc2[C@@](C#CC2CC2)(C(F)(F)F)O1 [EFAVIRENZ] | 0.133
Cc1c(N)nc(S(C)(=O)=O)nc1C(=O)c1ccccc1 | 19.1
CSc1nc(N)c(C)c(C(=O)c2ccccc2)n1 | 1.67
CSc1nc(N)c(C)c(C(=O)c2cccc3ccccc23)n1 | > 19.4
CSc1nc(N)c(C)c(C(=O)c2cccc(F)c2)n1 | 0.695
COc1ccc(CSc2nc(Cc3c(Cl)cccc3Cl)c(C)c(=O)[nH]2)cc1 | 4.7

Tested on: not listed separately
Test: Ratio of ED50 for drug resistant HIV1 with reverse transcriptase K103N mutant to wild type HIV1 NL4-3
Format: functional
Conditions: not given

Structure (SMILES) | Ratio EC50
Cc1ccnc2c1NC(=O)c1cccnc1N2C1CC1 [NEVIRAPINE] | 17
Cc1c(N)nc(S(C)(=O)=O)nc1C(=O)c1ccccc1 | 43
CSc1nc(N)c(C)c(C(=O)c2ccccc2)n1 | 28
CSc1nc(N)c(C)c(C(=O)c2cccc(F)c2)n1 | 20
COc1ccc(CSc2nc(Cc3c(Cl)cccc3Cl)c(C)c(=O)[nH]2)cc1 | 671

Tested on: not listed separately
Test: Ratio of ED50 for drug resistant HIV1 with reverse transcriptase Y181C mutant to wild type HIV1 NL4-3
Format: functional
Conditions: not given

Structure (SMILES) | Ratio EC50
Cc1c(N)nc(S(C)(=O)=O)nc1C(=O)c1ccccc1 | 23
CSc1nc(N)c(C)c(C(=O)c2ccccc2)n1 | 28
CSc1nc(N)c(C)c(C(=O)c2cccc(F)c2)n1 | 23

Tested on: Human immunodeficiency virus 1
Test: Antiviral activity against drug-resistant HIV1 with reverse transcriptase Y181C mutant infected in human MT4 cells assessed as virus-induced cell death by MTT method
Format: functional
Conditions: Human immunodeficiency virus 1, MT4; read-out: ED50 (the source's name)

Structure (SMILES) | EC50 [µM]
CSc1nc(N)c(C)c(C(=O)Cc2ccccc2)n1 | > 25
CSc1nc(N)c(C)c(/C(=N\O)c2ccccc2)n1 | > 25
CSc1nc(N)c(C)c(C(=O)CCc2ccccc2)n1 | > 25
CNc1nc(N)c(C)c(C(=O)c2ccccc2)n1 | > 25
CSc1nc(N)c(C)c(C(Cl)c2ccccc2)n1 (centres undefined) | > 25
CSc1nc(N)c(C)c(C(F)c2ccccc2)n1 (centres undefined) | > 25
Cc1ccnc2c1NC(=O)c1cccnc1N2C1CC1 [NEVIRAPINE] | > 2
CSc1nc(N)c(C)c(C(O)c2ccccc2)n1 (centres undefined) | > 25
O=C1Nc2ccc(Cl)cc2[C@@](C#CC2CC2)(C(F)(F)F)O1 [EFAVIRENZ] | 0.008
Cc1c(N)nc(S(C)(=O)=O)nc1C(=O)c1ccccc1 | 10.4
CSc1nc(N)c(C)c(C(=O)c2ccccc2)n1 | 1.71
CSc1nc(N)c(C)c(C(=O)c2cccc3ccccc23)n1 | > 19.4
CSc1nc(N)c(C)c(C(=O)c2cccc(F)c2)n1 | 0.779
